Source: US6395746B1, “Methods of treating ophthalmic, otic and nasal infections and attendant inflammation” (Alcon Manufacturing, Ltd., priority 1998, dated 2002)
Values after ≈ are worked out from the molar mass of the structure shown.

Tests used:
Assay in all cases: Minimum inhibitory concentration (MIC90)
Assay type in all cases: cell-based
[1] = system: H. influenzae/β-lactamase positive
Source text: (§1) The concentrations of the antibiotics of formula (I) in the compositions of the present invention will vary depending on the intended use of the compositions (e.g., treatment of existing infections or prevention of post-surgical infections), and the relative antimicrobial activity of the specific antibiotic selected. The antimicrobial activity of antibiotics is generally expressed as the minimum concentration required to inhibit the growth of a specified pathogen. This concentration is also referred to as the “minimum inhibitory concentration” or “MIC”. The term “MIC90” refers to the minimum concentration of antibiotic required to inhibit the growth of ninety percent (90%) of the strains of a species. The concentration of an antibiotic required to totally kill a specified bacteria is referred to as the “minimum bactericidal concentration” or “MBC”. The minimum inhibitory concentration of Trovafloxacin for several bacteria commonly associated with ophthalmic, otic and nasal infections are provided in the following table: […]

[2] = system: H. influenzae/βlactamase negative
Source text: as §1

P. aeruginosa = system: P. aeruginosa
Source text: as §1

[3] = system: S. aureus/methicillin resistant
Source text: as §1

[4] = system: S. aureus/methicillin sensitive
Source text: as §1

[5] = system: S. aureus/quinolone resistant
Source text: as §1

[6] = system: S. epidermidis/methicillin resistant
Source text: as §1

[7] = system: S. epidermidis/methicillin sensitive
Source text: as §1

[8] = system: S. pneumoniae/penicillin resistant
Source text: as §1

[9] = system: S. pneumoniae/penicillin sensitive
Source text: as §1

N[C@@H]1[C@H]2CN(c3nc4c(cc3F)c(=O)c(C(=O)O)cn4-c3ccc(F)cc3F)C[C@@H]12 [Trovafloxacin]
MIC90 [1]: 0.03 µg/mL (≈ 0.0721 µM) | MIC90 [2]: 0.03 µg/mL (≈ 0.0721 µM) | MIC90 (P. aeruginosa): 2.0 µg/mL (≈ 4.8 µM) | MIC90 [3]: 2.0 µg/mL (≈ 4.8 µM) | MIC90 [4]: 0.03 µg/mL (≈ 0.0721 µM) | MIC90 [5]: 4.0 µg/mL (≈ 9.61 µM) | MIC90 [6]: 4.0 µg/mL (≈ 9.61 µM) | MIC90 [7]: 0.06 µg/mL (≈ 0.144 µM) | MIC90 [8]: 0.25 µg/mL (≈ 0.6 µM) | MIC90 [9]: 0.25 µg/mL (≈ 0.6 µM)
